# Data taken from PubChem BioAssay (NCI).
#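 Following 48 hours of exposure in 96-well plates, responses at five concentrations were used to interpolate endpoints linearly. The concentration for full growth arrest is given as TGI.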
# How the values were obtained:
# Assay in all cases: DTP human tumour cell line panel, 48 h
# 786-0 renal = system: 786-0 renal
# A498 renal = system: A498 renal
# A549 NSCLC = system: A549 NSCLC
# ACHN renal = system: ACHN renal
# BT-549 breast = system: BT-549 breast
# CAKI-1 renal = system: CAKI-1 renal
# CCRF-CEM leukemia = system: CCRF-CEM leukemia
# COLO 205 colon = system: COLO 205 colon
# DU-145 prostate = system: DU-145 prostate
# EKVX NSCLC = system: EKVX NSCLC
# HCC-2998 colon = system: HCC-2998 colon
# HCT-116 colon = system: HCT-116 colon
# HL-60(TB) leukemia = system: HL-60(TB) leukemia
# HOP-62 NSCLC = system: HOP-62 NSCLC
# HOP-92 NSCLC = system: HOP-92 NSCLC
# HS 578T breast = system: HS 578T breast
# HT29 colon = system: HT29 colon
# IGROV1 ovarian = system: IGROV1 ovarian
# K-562 leukemia = system: K-562 leukemia
# KM12 colon = system: KM12 colon
# M14 melanoma = system: M14 melanoma
# MALME-3M melanoma = system: MALME-3M melanoma
# MCF7 breast = system: MCF7 breast
# MDA-MB-231 breast = system: MDA-MB-231 breast
# MDA-MB-435 = system: MDA-MB-435
# MDA-N = system: MDA-N
# MOLT-4 leukemia = system: MOLT-4 leukemia
# NCI-H226 lung = system: NCI-H226 lung
# NCI-H23 lung = system: NCI-H23 lung
# NCI-H460 lung = system: NCI-H460 lung
# NCI-H522 lung = system: NCI-H522 lung
# OVCAR-3 ovarian = system: OVCAR-3 ovarian
# OVCAR-4 ovarian = system: OVCAR-4 ovarian
# OVCAR-5 ovarian = system: OVCAR-5 ovarian
# OVCAR-8 ovarian = system: OVCAR-8 ovarian
# PC-3 prostate = system: PC-3 prostate
# RXF 393 renal = system: RXF 393 renal
# SF-268 CNS = system: SF-268 CNS
# SF-295 CNS = system: SF-295 CNS
# SF-539 CNS = system: SF-539 CNS
# SK-MEL-28 melanoma = system: SK-MEL-28 melanoma
# SK-MEL-5 melanoma = system: SK-MEL-5 melanoma
# SK-OV-3 ovarian = system: SK-OV-3 ovarian
# SN12C renal = system: SN12C renal
# SNB-19 CNS = system: SNB-19 CNS
# SNB-75 CNS = system: SNB-75 CNS
# SR leukemia = system: SR leukemia
# SW-620 colon = system: SW-620 colon
# T-47D breast = system: T-47D breast
# TK-10 renal = system: TK-10 renal
# U251 CNS = system: U251 CNS
# UACC-257 melanoma = system: UACC-257 melanoma
# UACC-62 melanoma = system: UACC-62 melanoma
# UO-31 renal = system: UO-31 renal
# HCT-15 colon = system: HCT-15 colon
# LOX IMVI melanoma = system: LOX IMVI melanoma
# RPMI-8226 leukemia = system: RPMI-8226 leukemia
# SK-MEL-2 melanoma = system: SK-MEL-2 melanoma
# NCI/ADR-RES ovarian = system: NCI/ADR-RES ovarian
smiles,measurement,setting,value
CC1(C)CC2(C)CC1CC2NC(=O)CCN1CCOCC1 (stereo not drawn),TGI,786-0 renal,> 100 µM
same,TGI,A498 renal,> 100 µM
same,TGI,A549 NSCLC,> 100 µM
same,TGI,ACHN renal,> 100 µM
same,TGI,BT-549 breast,> 100 µM
same,TGI,CAKI-1 renal,> 100 µM
same,TGI,CCRF-CEM leukemia,> 100 µM
same,TGI,COLO 205 colon,> 100 µM
same,TGI,DU-145 prostate,> 100 µM
same,TGI,EKVX NSCLC,> 100 µM
same,TGI,HCC-2998 colon,> 100 µM
same,TGI,HCT-116 colon,> 100 µM
same,TGI,HL-60(TB) leukemia,> 100 µM
same,TGI,HOP-62 NSCLC,> 100 µM
same,TGI,HOP-92 NSCLC,> 100 µM
same,TGI,HS 578T breast,> 100 µM
same,TGI,HT29 colon,> 100 µM
same,TGI,IGROV1 ovarian,> 100 µM
same,TGI,K-562 leukemia,> 100 µM
same,TGI,KM12 colon,> 100 µM
same,TGI,M14 melanoma,> 100 µM
same,TGI,MALME-3M melanoma,> 100 µM
same,TGI,MCF7 breast,> 100 µM
same,TGI,MDA-MB-231 breast,> 100 µM
same,TGI,MDA-MB-435,> 100 µM
same,TGI,MDA-N,> 100 µM
same,TGI,MOLT-4 leukemia,> 100 µM
same,TGI,NCI-H226 lung,> 100 µM
same,TGI,NCI-H23 lung,> 100 µM
same,TGI,NCI-H460 lung,> 100 µM
same,TGI,NCI-H522 lung,> 100 µM
same,TGI,OVCAR-3 ovarian,> 100 µM
same,TGI,OVCAR-4 ovarian,> 100 µM
same,TGI,OVCAR-5 ovarian,> 100 µM
same,TGI,OVCAR-8 ovarian,> 100 µM
same,TGI,PC-3 prostate,> 100 µM
same,TGI,RXF 393 renal,> 100 µM
same,TGI,SF-268 CNS,> 100 µM
same,TGI,SF-295 CNS,> 100 µM
same,TGI,SF-539 CNS,> 100 µM
same,TGI,SK-MEL-28 melanoma,> 100 µM
same,TGI,SK-MEL-5 melanoma,> 100 µM
same,TGI,SK-OV-3 ovarian,> 100 µM
same,TGI,SN12C renal,> 100 µM
same,TGI,SNB-19 CNS,> 100 µM
same,TGI,SNB-75 CNS,> 100 µM
same,TGI,SR leukemia,> 100 µM
same,TGI,SW-620 colon,> 100 µM
same,TGI,T-47D breast,> 100 µM
same,TGI,TK-10 renal,> 100 µM
same,TGI,U251 CNS,> 100 µM
same,TGI,UACC-257 melanoma,> 100 µM
same,TGI,UACC-62 melanoma,> 100 µM
same,TGI,UO-31 renal,> 100 µM
C=CC1=C(C)C2=NC1=CC1=NC(=CC3=C(C)C4=C(O)C(C(=O)OC)C(=C5NC(=C2)C(C)C5CCC(=O)OC)C4=N3)C(CC)=C1C (stereo not drawn),TGI,786-0 renal,> 100 µM
same,TGI,A498 renal,> 100 µM
same,TGI,A549 NSCLC,> 100 µM
same,TGI,ACHN renal,> 100 µM
same,TGI,BT-549 breast,> 100 µM
same,TGI,CAKI-1 renal,> 100 µM
same,TGI,CCRF-CEM leukemia,> 100 µM
same,TGI,COLO 205 colon,> 100 µM
same,TGI,DU-145 prostate,> 100 µM
same,TGI,EKVX NSCLC,> 100 µM
same,TGI,HCC-2998 colon,> 100 µM
same,TGI,HCT-116 colon,> 100 µM
same,TGI,HCT-15 colon,> 100 µM
same,TGI,HL-60(TB) leukemia,> 100 µM
same,TGI,HOP-62 NSCLC,> 100 µM
same,TGI,HOP-92 NSCLC,> 100 µM
same,TGI,HS 578T breast,> 100 µM
same,TGI,HT29 colon,> 100 µM
same,TGI,IGROV1 ovarian,> 100 µM
same,TGI,K-562 leukemia,> 100 µM
same,TGI,KM12 colon,> 100 µM
same,TGI,LOX IMVI melanoma,> 100 µM
same,TGI,M14 melanoma,> 100 µM
same,TGI,MALME-3M melanoma,> 100 µM
same,TGI,MCF7 breast,> 100 µM
same,TGI,MDA-MB-231 breast,> 100 µM
same,TGI,MDA-MB-435,> 100 µM
same,TGI,MDA-N,> 100 µM
same,TGI,NCI-H226 lung,> 100 µM
same,TGI,NCI-H23 lung,> 100 µM
same,TGI,NCI-H460 lung,> 100 µM
same,TGI,NCI-H522 lung,> 100 µM
same,TGI,OVCAR-3 ovarian,> 100 µM
same,TGI,OVCAR-4 ovarian,> 100 µM
same,TGI,OVCAR-5 ovarian,> 100 µM
same,TGI,OVCAR-8 ovarian,> 100 µM
same,TGI,PC-3 prostate,> 100 µM
same,TGI,RPMI-8226 leukemia,> 100 µM
same,TGI,RXF 393 renal,> 100 µM
same,TGI,SF-268 CNS,> 100 µM
same,TGI,SF-295 CNS,> 100 µM
same,TGI,SF-539 CNS,> 100 µM
same,TGI,SK-MEL-2 melanoma,> 100 µM
same,TGI,SK-MEL-28 melanoma,> 100 µM
same,TGI,SK-MEL-5 melanoma,> 100 µM
same,TGI,SK-OV-3 ovarian,> 100 µM
same,TGI,SN12C renal,> 100 µM
same,TGI,SNB-19 CNS,> 100 µM
same,TGI,SNB-75 CNS,> 100 µM
same,TGI,SR leukemia,> 100 µM
same,TGI,SW-620 colon,> 100 µM
same,TGI,T-47D breast,> 100 µM
same,TGI,TK-10 renal,> 100 µM
same,TGI,U251 CNS,> 100 µM
same,TGI,UACC-257 melanoma,> 100 µM
same,TGI,UACC-62 melanoma,> 100 µM
same,TGI,UO-31 renal,> 100 µM
COc1ccc(-c2cc(=O)c3c(OC)c(OC)c(OC)c(OC)c3o2)c(OC)c1,TGI,786-0 renal,> 100 µM
same,TGI,A498 renal,76.1 µM
same,TGI,A549 NSCLC,> 100 µM
same,TGI,ACHN renal,84.8 µM
same,TGI,BT-549 breast,> 100 µM
same,TGI,CAKI-1 renal,81.9 µM
same,TGI,CCRF-CEM leukemia,> 100 µM
same,TGI,COLO 205 colon,34.3 µM
same,TGI,DU-145 prostate,> 100 µM
same,TGI,EKVX NSCLC,> 100 µM
same,TGI,HCC-2998 colon,46.6 µM
same,TGI,HCT-116 colon,49.5 µM
same,TGI,HCT-15 colon,86.1 µM
same,TGI,HL-60(TB) leukemia,> 100 µM
same,TGI,HOP-62 NSCLC,70.6 µM
same,TGI,HOP-92 NSCLC,55.3 µM
same,TGI,HS 578T breast,49.4 µM
same,TGI,HT29 colon,68.5 µM
same,TGI,IGROV1 ovarian,> 100 µM
same,TGI,K-562 leukemia,> 100 µM
same,TGI,LOX IMVI melanoma,34.8 µM
same,TGI,M14 melanoma,46.7 µM
same,TGI,MALME-3M melanoma,> 100 µM
same,TGI,MCF7 breast,44 µM
same,TGI,MDA-MB-231 breast,> 100 µM
same,TGI,MDA-MB-435,89.7 µM
same,TGI,MDA-N,> 100 µM
same,TGI,MOLT-4 leukemia,86.1 µM
same,TGI,NCI-H226 lung,> 100 µM
same,TGI,NCI-H23 lung,58.5 µM
same,TGI,NCI-H460 lung,> 100 µM
same,TGI,NCI-H522 lung,29.1 µM
same,TGI,NCI/ADR-RES ovarian,67.3 µM
same,TGI,OVCAR-3 ovarian,53.7 µM
same,TGI,OVCAR-4 ovarian,94.4 µM
same,TGI,OVCAR-5 ovarian,> 100 µM
same,TGI,OVCAR-8 ovarian,> 100 µM
same,TGI,RPMI-8226 leukemia,> 100 µM
same,TGI,RXF 393 renal,99.7 µM
same,TGI,SF-268 CNS,> 100 µM
same,TGI,SF-295 CNS,46 µM
same,TGI,SF-539 CNS,> 100 µM
same,TGI,SK-MEL-2 melanoma,39.2 µM
same,TGI,SK-MEL-28 melanoma,> 100 µM
same,TGI,SK-MEL-5 melanoma,55.8 µM
same,TGI,SK-OV-3 ovarian,> 100 µM
same,TGI,SN12C renal,62.6 µM
same,TGI,SNB-19 CNS,> 100 µM
same,TGI,SNB-75 CNS,> 100 µM
same,TGI,SR leukemia,> 100 µM
same,TGI,SW-620 colon,> 100 µM
same,TGI,T-47D breast,59.5 µM
same,TGI,TK-10 renal,> 100 µM
same,TGI,U251 CNS,> 100 µM
same,TGI,UACC-257 melanoma,49.5 µM
same,TGI,UACC-62 melanoma,33 µM
same,TGI,UO-31 renal,62.8 µM
